What was measured:
[1] = test system: human diploid fibroblasts; assay: growth factor-stimulated signaling events in human diploid fibroblasts; format: cell-based
Procedure: Foreskin fibroblasts were isolated as described by Boyce and Ham (1983). Cells were cultured in Dulbecco's modified Eagle's medium containing 10% fetal bovine serum and antibiotics. The primary culture contained smaller and more closely packed cells during the early stage of the culture. Cells with less than 10 passage were often considered as presenescent cells. As the cells were passaged, they became larger and they have a slower growth rate at passage 10-20. Cells from over 27 passages were completely growth-arrested and developed characteristic appearance designated previously as replicative senescence (Yeo et al., 2000a and b). In order to confirm that cells were senescent, we either examined the activity of beta-galactosidase or stained with X-gal, a membrane permeable substrate of the enzyme, which produces a blue insoluble product inside of the cells. The number of cells stained with X-gal increased with age and most of cells from passage 27-28 were stained. Cultures of over 23-28 passages have also shown the cessation of cell growth and senescence-like morphological changes, but only 70-80% of cells were stained with X-gal. These were termed “near-senescent”. Although the near-senescent cultures were not completely homogeneous, we compared the changes in these cultures to those in presenescent cultures of passage 6-10. In order to determine the growth factor-stimulated signaling events, cells were grown for 1-2 days to 60-70% sub-confluency in the culture medium, and then serum-starved to become quiescent by incubating with serum free medium (SFM) for 2 days. The quiescent cells were treated with various agonists, as described in the figure legends. To label cells, radioactive chemicals were added during the incubation with SFM.
Primary human diploid fibroblasts, isolated from newborn foreskins, were used to study the mechanism of reduced response to growth factor stimulation with aging. These cells were maintained and passaged as described previously (Yeo et al., 2000a). […] Compared to their presenescent counterparts, the senescent and near-senescent cells were larger and grew to lower density, as has been observed in other cell systems. Here the present inventors report upon the differential changes in the signaling events evoked by platelet-derived growth factor (PDGF) and lysophosphatidic acid (LPA). PDGF elicits signaling events over a concentration range of 10-100 ng/ml, whereas LPA stimulates the hydrolysis of phospholipids, Ca^2+ mobilization, and actin polymerization over a concentration range of 0.1-10 μg/ml in human diploid fibroblasts. In order to compare their cellular responses, we treated presenescent and senescent (or near-senescent) cells with PDGF and LPA at a maximally responsive dose of 50 ng/ml and 1 μg/ml, respectively.

[2] = test system: human diploid fibroblasts; assay: measurement of cytosolic free [Ca2+]i by confocal microscopy (fluo-3-AM); format: cell-based; settings: PDGF 50 ng/ml, LPA 1 μg/ml
Procedure: FIG. 1 represents differential changes in growth factor-stimulated calcium release in senescent fibroblasts. Presenescent (passage 7: A and C) and senescent (passage 27: B and D) fibroblasts were grown on coverslips, serum-starved, and incubated with 4 μM fluo-3-AM in serum-free medium for 40 min. The stained cells were treated with […] of platelet-derived growth factor (A and B) or 1 μg/ml of lysophosphatidic acid (C and D) via a micro-perfusion system for the real-time measurement of signaling molecules, and laser scanning confocal microscopy. The scanned images were analyzed for changes in intracellular Ca^2+ at the single cell level and results expressed as relative fluorescence intensity (RFI).
[Ca^2+]i was measured using a laser scanning confocal microscope, as described by Junn et al. (2000). Quiescent fibroblasts grown on glass cover slips in a 6-well plate were stained with 4 μM of fluo-3-acetoxymethyl ester (fluo-3-AM) in phenol red-free medium without serum for 40 min and washed three times with the serum-free medium. Stained cells on each cover slip were mounted on a perfusion chamber (MPS-1000, Seoul Engineering, Korea), placed under the confocal laser scanning microscope (Carl Zeiss LSM 410), and scanned every 5 sec with a 488 nm excitation argon laser and a 515 nm long pass emission filter. Growth factors were added to the cells using an automatic pumping system (self-designed). All scanned images were analyzed for [Ca ^2+]i changes at the single cell level using “Time Series Program” for a real-time measurement of relative fluorescence intensity (RFI) which is installed in the Carl Zeiss LSM 410 confocal system.

cellular cAMP = assay: measurement of cyclic AMP accumulation (cAMP binding assay); format: cell-based, human
Procedure: FIG. 9 represents LPA-induced alteration of cellular cAMP content in presenescent and near-senescent fibroblasts. Subconfluent presenescent (passage 8, Pa 8) and near-senescent (passage 24, Pa 24) fibroblasts were serum-starved for 2 days and treated with LPA: A, 1-70 μg/ml LPA for 30 min; B, 30 μg/ml LPA for the indicated times. The level of cAMP in the acid extracts was measured by cAMP binding assay. The data represents an average of triplicate experiments.
Subconfluent near-senescent (passage 26, Pa 26) fibroblasts were serum-starved for 2 days and treated with 30 μg/ml LPA for the indicated times in the absence or presence of 10 μM PKC inhibitor bisindolylmaleiamide (bIM). The level of cAMP in the acid extracts was measured by cAMP binding assay. The data represents an average of triplicate experiments.
Cells grown on a 12 well-plate were serum-starved by incubating with SFM for 2 days. After the cells were equilibrated in the fresh SFM medium for 1 hour, they were treated with LPA as described in the figure. The reaction was terminated by removing the medium and by adding 2.5 M perchloric acid. The acid extract was stored at −20° C. until use. The acid extract was neutralized with 4.2 M KOH and the cAMP content was determined by competitive binding with [^3H]cAMP to the cAMP binding protein, RIα of cAMP-dependent protein kinase, as described by Jang and Juhnn (2001). After the extraction, cells were lyzed with 0.1 N NaOH and analyzed for protein content using the Bradford protein assay reagent. The cAMP content was normalized to the amount of acid-insoluble protein.

PKC = PKC activation (aggregation and translocation of PKC-α, confocal microscopy); format: cell-based, human; settings: near-senescent cells (passage 29); 30 μg/ml LPA
Procedure: FIG. 16 represents PKC activation by LPA in presenescent and near-senescent human diploid fibroblasts. Subconfluent presenescent (passage 10, Pa 10) and near-senescent (passage 29, Pa 29) fibroblasts were serum-starved for 2 days and treated with 30 μg/ml LPA for the indicated times. PKC activation was indicated by aggregation and translocation of PKC proteins into the plasma membrane. PKC-α was detected under a confocal microscopy system with polyclonal anti-PKC-α antibodies and FITC-conjugated secondary antibodies.

[3] = test system: human diploid fibroblasts; assay: LPA-stimulated cell proliferation (viable cell count or MTT assay); format: cell-based; settings: 4 days treatment
Source text: The optical density at 570 nm was plotted (A). The actual viable cell numbers were plotted (B).
In order to study the role of LPA-induced cAMP signaling, the inventors further compared LPA-stimulated cell proliferation between presenescent and near-senescent cells. After 4 days treatment with vehicle or LPA, the level of viable cells were counted or measured by MTT assay.

Substance: lysophosphatidic acid [LPA]
- concentration range stimulating hydrolysis of phospholipids, Ca2+ mobilization and actin polymerization ([1]; human diploid fibroblasts): 0.1 to 10 µg/mL
- maximally responsive dose ([1]; presenescent and senescent (or near-senescent) cells): 1 µg/mL
- cytosolic Ca2+ levels ([2]; presenescent fibroblasts (passage 7)): rapid increase
- Ca2+ response in senescent cells relative to presenescent ([2]; senescent cells (passage 27)): not significantly
- increase of cellular cAMP content (cellular cAMP; near-senescent fibroblasts, 30 μg/ml LPA for 60 min): 70-80%
- increase of cellular cAMP (cellular cAMP; near-senescent fibroblasts, 30 min, LPA 1-70 μg/ml): 31-77%
- decrease of cellular cAMP (cellular cAMP; presenescent fibroblasts, 30 min, LPA 1-70 μg/ml): 33-43%
- PKC activation (PKC): further increase in PKC activation
- rate of LPA-stimulated proliferation ([3]; near-senescent cells): partially decreased
- cell proliferation ([3]; presenescent cells): stimulated proliferation of presenescent cells dose-dependently

Source: patent publication US20060099568A1, “Signals and molecular species involved in senescence” (priority 2002, published 2006)
